Measured values taken from patent US8349841B2, “Vinyl-aryl derivatives for inflammation and immune-related uses” (Synta Pharmaceuticals Corp., priority 2007, dated 2013).
Where a name gives a salt, the structure may show the parent alone.

Test system: IL-2 production
Assay: Inhibition of IL-2 production in PHA-activated Jurkat cells (ELISA)
Type: cell-based
Conditions: Homo sapiens, PHA 2.5 μg/mL, 20 hours at 37° C., IL-2 ELISA
Method: Jurkat cells were placed in a 96 well plate (0.5 million cells per well in 1% FBS medium) then a test compound of this invention was added at different concentrations. After 10 minutes, the cells were activated with PHA (final concentration 2.5 μg/mL) and incubated for 20 hours at 37° C. under CO2. The final volume was 200 μL. Following incubation, the cells were centrifuged and the supernatants collected and stored at −70° C. prior to assaying for IL-2 production. A commercial ELISA kit (IL-2 Eli-pair, Diaclone Research, Besancon, France) was used to detect production of IL-2, from which dose response curves were obtained. The IC50 value was calculated as the concentration at which 50% of maximum IL-2 production after stimulation was inhibited versus a non-stimulation control.

Point of comparison: `CCOC(=O)N1CCC(Cl)=C(c2ccc(NC(=O)c3c(F)cccc3F)cc2)C1` [Compound 6, ethyl 4-chloro-3-(4-(2,6-difluorobenzamido)phenyl)-5,6-dihydropyridine-1(2H)-carboxylate], IC50 66 nM. Against it:
- CCOC(=O)N1CCC(C)=C(c2ccc(NC(=O)c3c(F)cccc3F)nc2)C1 [Compound 1, ethyl 3-(6-(2,6-difluorobenzamido)pyridin-3-yl)-4-methyl-5,6-dihydropyridine-1(2H)-carboxylate] — 2.2-fold lower, 30 nM
- CC1=C(c2cnc(NC(=O)c3c(F)cccc3F)cn2)CN(c2ncccn2)CC1 [Compound 2, 2,6-difluoro-N-(5-(4-methyl-1-(pyrimidin-2-yl)-1,2,5,6-tetrahydropyridin-3-yl)pyrazin-2-yl)benzamide hydrochloride] — 1.7-fold lower, 38 nM
- C=CCOC(=O)N1CCC(c2ccc(NC(=O)c3c(F)cccc3F)cc2)=C(COC(C)=O)C1 [Compound 3, allyl 3-(acetoxymethyl)-4-(4-(2,6-difluorobenzamido)phenyl)-5,6-dihydropyridine-1(2H)-carboxylate] — higher, > 1000 nM
- CC1=C(c2ccc(NC(=O)c3c(F)cccc3F)nc2)CN(C(=O)c2ccccn2)CC1 [Compound 4, 2,6-difluoro-N-(5-(4-methyl-1-picolinoyl-1,2,5,6-tetrahydropyridin-3-yl)pyridin-2-yl)benzamide hydrochloride] — 14-fold higher, 934 nM
- CCOC(=O)N1CCC(c2ccc(NC(=O)c3c(F)cccc3F)cc2)=C(COC(C)=O)C1 [Compound 5, ethyl 3-(acetoxymethyl)-4-(4-(2,6-difluorobenzamido)phenyl)-5,6-dihydropyridine-1(2H)-carboxylate] — higher, > 1000 nM
